From paper PMC4023695 (ACS medicinal chemistry letters, 2014)
Marks after values point to notes of the source that are not given here.

Experiments:
MOR [1] = molecular target: MOR (Rattus norvegicus, UniProt P33535); format: binding
Caco-2 cell monolayers = assay: Caco-2 cell monolayer translocation; format: in vitro ADME
C57Bl6 mice = assay: Mouse tail-flick assay; format: in vivo; settings: intravenous, nonlinear regression of log dose–response curve
[2] = Metabolic plasma stability assay; format: in vitro ADME; settings: up to 20 h
[3] = cited from earlier work
MOR [4] = settings: read-out: GPI IC50; DALDA literature characterisation, no reference given; cited from earlier work
[5] = cis-concentration 13 nM, absence of unlabelled compound, means ± SE, n = 3

Chain of MOR (Rattus norvegicus, UniProt P33535) (P33535 whole entry): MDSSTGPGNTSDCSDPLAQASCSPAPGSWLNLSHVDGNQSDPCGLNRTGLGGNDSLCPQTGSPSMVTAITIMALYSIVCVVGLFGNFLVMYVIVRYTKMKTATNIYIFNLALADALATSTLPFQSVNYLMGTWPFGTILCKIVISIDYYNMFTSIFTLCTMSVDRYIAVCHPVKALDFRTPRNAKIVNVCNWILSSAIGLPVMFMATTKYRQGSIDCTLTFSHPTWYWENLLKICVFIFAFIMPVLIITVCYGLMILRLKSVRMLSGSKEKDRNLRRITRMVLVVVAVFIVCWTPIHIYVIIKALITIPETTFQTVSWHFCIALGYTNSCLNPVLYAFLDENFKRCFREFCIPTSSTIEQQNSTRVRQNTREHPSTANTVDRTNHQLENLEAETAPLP

N=C(N)NCCC[C@@H](NC(=O)[C@@H](N)Cc1ccc(OCc2cn([C@@H]3O[C@H](CO)[C@H](O)[C@H](O)[C@H]3O)nn2)cc1)C(=O)N[C@@H](Cc1ccccc1)C(=O)N[C@@H](CCCCN)C(N)=O [compound 3]
loss in binding (MOR) relative to DALDA (MOR [1]; compound 3 vs DALDA): 22 fold
Ki ratio μ/δ (MOR [1]; μ/δ receptor binding selectivity ratio): >130

Cc1cc(O)cc(C)c1C[C@H](N)C(=O)N[C@H](CCCNC(=N)N)C(=O)N[C@@H](Cc1ccccc1)C(=O)N[C@@H](Cc1cn([C@@H]2O[C@H](CO)[C@H](O)[C@H](O)[C@H]2O)nn1)C(N)=O [compound 4]
A–B and B–A permeabilities compared to mannitol (Caco-2 cell monolayers; 21 day old Caco-2 monolayers, 13 nM): slightly higher than the permeability of the passive flux marker mannitol
Flux A–B (lumen–blood) (Caco-2 cell monolayers; [5]): 2.59 ± 0.15 nmol·cm^−2·min^−1 × 10^−7
Flux B–A (blood–lumen) (Caco-2 cell monolayers; [5]): 2.96 ± 0.13 nmol·cm^−2·min^−1 × 10^−7
ED50 tail-flick test (C57Bl6 mice): 0.27* mg/kg
degradation in human plasma [2]: no degradation products could be observed

Cc1cc(O)cc(C)c1C[C@H](N)C(=O)N[C@H](CCCNC(=N)N)C(=O)N[C@@H](Cc1ccccc1)C(=O)N[C@@H](Cc1cn([C@@H]2O[C@H](CO)[C@@H](O)[C@H](O)[C@H]2O)nn1)C(N)=O [compound 5]
degradation in human plasma [2]: no degradation products could be observed

OC[C@@H](O)[C@@H](O)[C@H](O)[C@H](O)CO [mannitol]
oral bioavailability [3]: ~ 20%

Tyr-D-Arg-Phe-Lys-NH2 [DALDA]
IC50 (MOR [4]): 254 nM
